# Laboratory results taken from US10849959B2, “Formulation, dosage form and method of reducing knee pain” (ORTHOTROPHIX, INC., priority 2017, dated 2020).
# Like-named read-outs stand apart in the source and are kept apart here.
# Key:
# [1] = test system: standardized large cartilage defects; details: four weekly intra-articular injections, cited from earlier work
# [2] = test system: subjects with bilateral patello-femoral knee osteoarthritis
# Experimental: Eighteen (18) orthopedic, rheumatologic and family practice centers in the U.S. participated in the study.
# A Safety Review Committee (SRC) evaluated safety in each dosing cohort. The SRC assessed safety and dose-limiting toxicities, if evident, and determined whether the next higher dosing regimen might be enrolled. Part A were completed and analyzed with regard to safety prior to dose selection and initiation of Part B.
# Six (6) subjects were enrolled in 20, 50, and 100 mg cohorts, respectively, and nine (9) subjects were enrolled in 200 mg cohort. Each dosing cohort was reviewed based on safety analysis of dose groups in Part A.
# No other doses of drug or placebo were administered. All subjects visited their respective clinical sites at 3, 6, and 12 months after the first dosing for their safety and efficacy assessments.
# On the first dosing day, the randomized subjects were assessed for their general health conditions by physical examinations and vital signs. Further, they completed self-reported assessments of the conditions of each of their knees as well as systemic health by the questionnaires of KOOS (Knee injury and Osteoarthritis Outcome Score), which includes subscales of WOMAC (Western Ontario and McMaster Universities Osteoarthritis Index). KOOS is a questionnaire that assesses knee-specific activities of daily living, sports and recreation function, knee-related quality of life, symptom, and knee pain. […] After these assessments, subjects received one intra-articular injection in each knee, with each injection prepared from the vial(s) marked for that knee. One knee received TPX-100, and the contralateral knee received placebo, in a triple-blind fashion (subject, site, and sponsor all blinded to treatment assignment). Subjects were monitored for adverse events during the injections and for a few hours after the injections. Vital signs were also monitored after the injections.
# On the 7th, 14th, and 21st days after the first dosing, subjects received the second, third, and fourth (last) dosing of the same study materials, respectively, as well as safety and adverse event assessments in the same way as the first dosing day.
# Subjects returned to their respective study sites at 3, 6 and 12 months after the first dosing day for follow-up evaluations. In addition, the study sites monitored the subject's condition through telephone contact 9 months after the first dosing day. During the 3, 6, and 12 months post-treatment follow-up on-site visits, subjects were evaluated by physical examination, vital signs, serum chemistry, as well as KOOS. Adverse events and concomitant medications were also recorded.
# [3] = stated as known, no test described, cited from earlier work
# [4] = test system: subjects with bilateral patello-femoral knee osteoarthritis; test: Randomized double-blind placebo-controlled clinical study of TPX-100, efficacy by KOOS/WOMAC patient reported outcomes; format: in vivo, human; details: for Severity of pain going up or down stairs, treated vs placebo-treated knee (in words): p=0.004; for Pain alleviation in other activities or statuses of KOOS pain: activities other than going up or down stairs (and bending knee fully), any time point; for Knee functions, KOOS ADL (Function of Daily Living) and WOMAC function, treated vs placebo-treated knees: both 6 and 12 months after treatment, FIG. 12
# Experimental: For this activity, the peptide of SEQ ID No. 1 was tested for its clinical safety and efficacy on a condition involving cartilage damage in a Phase 2 randomized double-blind controlled clinical trial with mild to severe knee osteoarthritis (OA) patients. See EXAMPLES.
# The KOOS ADL (Function of Daily Living) consists of 17 questions asking degree of difficulty in functioning each knee during 17 different activities in daily living. Those 17 activities are broadly ranged from light to heavy duties. With regard to each activity, difficulty of each knee function is scored in 0-4 range where 0 as no difficulty and 4 as the most difficulty. The sum of the scores range from 0 to 68 (4×17), which is then converted to a 0-100 scale is KOOS ADL score. WOMAC function consists of the same questions with same scoring, except the total score range is not converted to 0-100 but remains 0-68.
# The KOOS pain domain consists of 9 questions and each question is scored in 0-4 range. The sum of the scores, 0-36 (4×9), which is converted to a 0-100 scale to generate a KOOS pain score. While the first of the 9 questions asks for the frequency of knee pain, the other 8 questions ask for severity of knee pain during different activities or positions, where 0 is “never” experiencing pain and 4 is “always” experiencing pain. These 8 activities range from positions with little to no motion such as “at night while in bed” to those with high joint loading such as “going up or down stairs” (See FIG. 2). WOMAC pain consists of the same questions with the same scoring, except that the total score is not converted to a 100-point scale but remains in the range 0-36.
# MRIs of both knees were evaluated by a central reader to determine the ICRS grade (gICRS) of each knee. If the cartilage of patello-femoral compartment in both knees fell within ICRS grades 1-3, or 4 with only focal defects, no defects greater than 1 cm, and all other inclusion criteria were met, with none of the exclusion criteria, the subject was registered. The randomization center randomized each subject to either Right knee active or Left knee active, with the active knee to receive TPX-100 and the contralateral knee to receive identical placebo.
# For enrolled subjects, there was within-subject randomization, such that one knee received active drug injections, and the contralateral knee received identical placebo injections. Using subjects as their own control permits reduction of confounders such as weight, activity level, pain threshold, and uncharacterized genetic susceptibilities to OA progression. As two knees within a person form a matched set, the effects of individual-level confounders that are difficult to quantify (e.g. level of activity, genetic and epigenetic factors, pain threshold) are eliminated, increasing the power of the study to detect a treatment effect if one is present.
# All KOOS subscale scores were analyzed. The primary analysis was carried out using a two-sided paired t-test at the 5% level of significance. The outcome variable was the difference between the change of the score of each subscale of KOOS from baseline in the treated knee (“Index Knee”) and the change from baseline in the placebo-treated knee (“Control Knee”).
# Ninety-three (93) subjects who received 200 mg per dose of TPX-100 in one knee and placebo in contralateral knee were analyzed for efficacy.
# [5] = 12 months, 200 mg, listed as peptide of SEQ ID No. 1
# [6] = 200 mg, listed as peptide of SEQ ID No. 1
sequence,measurement,setting,value
TDLQERGDNDISPFSGDGQPFKD [TPX-100],Articular cartilage regeneration compared to vehicle control group,"[1]; 125 mg and 250 mg, 6 months post-surgery",histologically-confirmed and statistically significant articular cartilage regeneration
same,Safety and tolerability in goats,[1]; freely ambulatory animals,safe and well-tolerated
same,Dose-limiting toxicities,"[2]; Part A, 20, 50, 100 and 200 mg per intra-articular injection, four weekly",no dose-limiting toxicities
same,Safety and tolerability of treatments,[2]; throughout the study period,safe and well tolerated
same,Severe adverse events related to drug treatment,[2]; throughout the study period,no severe adverse events likely or possibly related to the drug treatment
same,Severity of treatment-related adverse events,[2]; throughout the study period,"mild or moderate, transient"
same,Analgesic or anti-inflammatory activities,[3],does not have any analgesic or anti-inflammatory activities
same,Analgesic or anti-inflammatory activities,[3]; listed as peptide of SEQ ID No. 1,does not have any anti-inflammatory or analgesic activities
same,"Function improvement across the 17 activities of KOOS ADL, treated vs placebo-treated knee",[4]; 200 mg,observed in most of the 17 light to heavy activities
same,"Frequency of overall knee pain, Index vs Control knees (in words)","[4]; 12 months, 200 mg",significantly improved (p=0.04)
same,"Severity of pain bending knee fully, treated vs placebo-treated knee (in words)","[4]; 12 months, 200 mg",trend (p<0.09) of improvement
same,"Frequency of overall knee pain, Index vs Control knees (in words)",[4]; [5],significantly reduced
same,"Severity of pain bending knee fully, treated vs placebo-treated knee (in words)",[4]; [5],near statistically significant pain alleviation
same,"Severity of pain going up or down stairs, treated vs placebo-treated knee (in words)","[4]; 12 months, 200 mg",highly significant
same,"Severity of pain going up or down stairs, treated vs placebo-treated knee (in words)",[4]; [5],statistically significant improvement
same,"Score Change from Baseline to 12 Months, Index: How often do you experience RIGHT/LEFT knee pain?","[4]; KOOS Pain Question 1 (frequency, score 0-4), TPX-100 treated knees, 200 mg intra-articular, 4 weekly doses, 12 months",−0.62
same,Difference = [Index score change] − [Control score change]: How often do you experience RIGHT/LEFT knee pain?,"[4]; KOOS Pain Question 1, TPX-100 vs placebo treated knees, baseline to 12 months, 200 mg",−0.26
same,"Score Change from Baseline to 12 Months, Index: Twisting/pivoting on your knee","[4]; KOOS Pain Question 2 (severity, score 0-4), TPX-100 treated knees, 200 mg intra-articular, 4 weekly doses, 12 months",−0.19
same,Difference = [Index score change] − [Control score change]: Twisting/pivoting on your knee,"[4]; KOOS Pain Question 2, TPX-100 vs placebo treated knees, baseline to 12 months, 200 mg",−0.09
same,"Score Change from Baseline to 12 Months, Index: Straightening knee fully moving","[4]; KOOS Pain Question 3 (severity, score 0-4), TPX-100 treated knees, 200 mg intra-articular, 4 weekly doses, 12 months",−0.30
same,Difference = [Index score change] − [Control score change]: Straightening knee fully moving,"[4]; KOOS Pain Question 3, TPX-100 vs placebo treated knees, baseline to 12 months, 200 mg",−0.12
same,"Score Change from Baseline to 12 Months, Index: Bending knee fully","[4]; KOOS Pain Question 4 (severity, score 0-4), TPX-100 treated knees, 200 mg intra-articular, 4 weekly doses, 12 months",−0.45
same,Difference = [Index score change] − [Control score change]: Bending knee fully,"[4]; KOOS Pain Question 4, TPX-100 vs placebo treated knees, baseline to 12 months, 200 mg",−0.24
same,"Score Change from Baseline to 12 Months, Index: Walking on flat surface","[4]; KOOS Pain Question 5 (severity, score 0-4), TPX-100 treated knees, 200 mg intra-articular, 4 weekly doses, 12 months",−0.25
same,Difference = [Index score change] − [Control score change]: Walking on flat surface,"[4]; KOOS Pain Question 5, TPX-100 vs placebo treated knees, baseline to 12 months, 200 mg",−0.12
same,"Score Change from Baseline to 12 Months, Index: Going up or down stairs","[4]; KOOS Pain Question 6 (severity, score 0-4), TPX-100 treated knees, 200 mg intra-articular, 4 weekly doses, 12 months",−0.51
same,Difference = [Index score change] − [Control score change]: Going up or down stairs,"[4]; KOOS Pain Question 6, TPX-100 vs placebo treated knees, baseline to 12 months, 200 mg",−0.33
same,"Score Change from Baseline to 12 Months, Index: At night while in bed","[4]; KOOS Pain Question 7 (severity, score 0-4), TPX-100 treated knees, 200 mg intra-articular, 4 weekly doses, 12 months",−0.19
same,Difference = [Index score change] − [Control score change]: At night while in bed,"[4]; KOOS Pain Question 7, TPX-100 vs placebo treated knees, baseline to 12 months, 200 mg",0.00
same,Difference = [Index score change] − [Control score change]: Sitting or lying,"[4]; KOOS Pain Question 8, TPX-100 vs placebo treated knees, baseline to 12 months, 200 mg",−0.02
same,"Score Change from Baseline to 12 Months, Index: Standing upright","[4]; KOOS Pain Question 9 (severity, score 0-4), TPX-100 treated knees, 200 mg intra-articular, 4 weekly doses, 12 months",−0.34
same,Difference = [Index score change] − [Control score change]: Standing upright,"[4]; KOOS Pain Question 9, TPX-100 vs placebo treated knees, baseline to 12 months, 200 mg",−0.16
same,Pain alleviation in other activities or statuses of KOOS pain,[4]; 200 mg,did not show statistically significant improvements
same,Pain alleviation in other activities or statuses of KOOS pain,[4]; [6],did not show pain alleviation with statistical significance or trend
same,"KOOS Sports and Recreation subscale, Index vs Control knees","[4]; at 6 months, 200 mg",clinically meaningful and statistically significant improvement
same,"KOOS knee related quality of life (QOL) subscale, Index vs Control knees","[4]; at 12 months, 200 mg",clinically meaningful and statistically significant improvement
same,"Total KOOS pain subscale, Index vs Control knees","[4]; at 12 months, 200 mg",clinically meaningful and statistical trend (p<0.09) of improvement
same,"Total KOOS pain subscale, Index vs Control knees","[4]; at 12 months, 200 mg, listed as peptide of SEQ ID No. 1",clinically meaningful improvement
same,"Knee functions, KOOS ADL (Function of Daily Living) and WOMAC function, treated vs placebo-treated knees",[4]; 200 mg,clinically meaningful and statistically significant (p<0.05) improvement
same,"Knee functions, KOOS ADL (Function of Daily Living) and WOMAC function, treated vs placebo-treated knees",[4]; [6],clinically meaningful and highly statistically significant (p=0.008) improvement
same,"Total KOOS pain score, treated vs placebo treated knees","[4]; until 6 months after the treatment, 200 mg",very similar
